Test results published in patent US9242987B2, “Heterocyclyl pyrazolopyrimidine analogues as JAK inhibitors” (Cellzome Limited, priority 2009, dated 2016).

Assays:
JAK3 = target: T1, JAK3 (Homo sapiens, UniProt P52333); experiment: Kinobeads assay, JAK3; format: binding; settings: mixed Molt4/Ramos cell lysate, dot blot detection
T1 construct: endogenous in cells; host or cells: Mixed Molt4/Ramos lysate (1:2)
T1 sequence (P52333 1-1124): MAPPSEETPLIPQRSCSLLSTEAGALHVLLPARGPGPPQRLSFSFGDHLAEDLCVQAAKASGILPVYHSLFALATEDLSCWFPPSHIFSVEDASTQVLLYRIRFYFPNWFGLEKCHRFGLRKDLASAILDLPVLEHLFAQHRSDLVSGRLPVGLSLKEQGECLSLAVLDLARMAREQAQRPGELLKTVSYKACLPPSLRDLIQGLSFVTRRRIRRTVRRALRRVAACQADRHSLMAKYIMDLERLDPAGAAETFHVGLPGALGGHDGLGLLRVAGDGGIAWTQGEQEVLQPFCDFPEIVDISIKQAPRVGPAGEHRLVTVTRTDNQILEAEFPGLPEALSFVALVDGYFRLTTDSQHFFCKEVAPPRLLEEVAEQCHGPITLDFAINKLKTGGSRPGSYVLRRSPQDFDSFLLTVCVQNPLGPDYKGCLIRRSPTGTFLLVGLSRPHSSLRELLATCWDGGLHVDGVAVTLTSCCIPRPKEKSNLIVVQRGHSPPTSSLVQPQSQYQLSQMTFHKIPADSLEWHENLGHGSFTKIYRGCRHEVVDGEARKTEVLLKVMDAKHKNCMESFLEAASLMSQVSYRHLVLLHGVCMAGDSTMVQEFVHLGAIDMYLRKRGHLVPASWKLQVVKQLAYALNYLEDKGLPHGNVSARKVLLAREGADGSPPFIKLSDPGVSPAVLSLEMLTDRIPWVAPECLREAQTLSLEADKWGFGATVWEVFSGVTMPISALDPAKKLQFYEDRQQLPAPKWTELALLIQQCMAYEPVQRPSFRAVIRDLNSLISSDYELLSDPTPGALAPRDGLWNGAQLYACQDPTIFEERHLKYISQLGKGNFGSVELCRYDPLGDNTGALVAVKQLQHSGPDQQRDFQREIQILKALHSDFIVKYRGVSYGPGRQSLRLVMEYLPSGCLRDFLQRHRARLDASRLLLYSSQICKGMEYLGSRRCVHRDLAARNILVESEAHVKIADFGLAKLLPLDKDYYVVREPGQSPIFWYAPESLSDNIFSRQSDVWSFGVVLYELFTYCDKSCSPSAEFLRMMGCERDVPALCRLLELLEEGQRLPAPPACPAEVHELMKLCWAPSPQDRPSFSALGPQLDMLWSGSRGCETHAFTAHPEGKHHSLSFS
Outline: (§1)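 Lysate from Molt4 and Ramos cells combined 1:2 at 10 mg/mL total protein met test compound and an aminopyrido-pyrimidine affinity matrix for 3 h in the cold. Captured JAK2 and JAK3, after elution, were measured by specific-antibody dot blot on an infrared system; dose-response curves yielded IC50.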

JAK2 = target: T2, JAK2 (Homo sapiens, UniProt O60674); experiment: Kinobeads assay, JAK2; format: binding; settings: mixed Molt4/Ramos cell lysate, dot blot detection
T2 construct: endogenous in cells; host or cells: Mixed Molt4/Ramos lysate (1:2)
T2 sequence (O60674 whole entry): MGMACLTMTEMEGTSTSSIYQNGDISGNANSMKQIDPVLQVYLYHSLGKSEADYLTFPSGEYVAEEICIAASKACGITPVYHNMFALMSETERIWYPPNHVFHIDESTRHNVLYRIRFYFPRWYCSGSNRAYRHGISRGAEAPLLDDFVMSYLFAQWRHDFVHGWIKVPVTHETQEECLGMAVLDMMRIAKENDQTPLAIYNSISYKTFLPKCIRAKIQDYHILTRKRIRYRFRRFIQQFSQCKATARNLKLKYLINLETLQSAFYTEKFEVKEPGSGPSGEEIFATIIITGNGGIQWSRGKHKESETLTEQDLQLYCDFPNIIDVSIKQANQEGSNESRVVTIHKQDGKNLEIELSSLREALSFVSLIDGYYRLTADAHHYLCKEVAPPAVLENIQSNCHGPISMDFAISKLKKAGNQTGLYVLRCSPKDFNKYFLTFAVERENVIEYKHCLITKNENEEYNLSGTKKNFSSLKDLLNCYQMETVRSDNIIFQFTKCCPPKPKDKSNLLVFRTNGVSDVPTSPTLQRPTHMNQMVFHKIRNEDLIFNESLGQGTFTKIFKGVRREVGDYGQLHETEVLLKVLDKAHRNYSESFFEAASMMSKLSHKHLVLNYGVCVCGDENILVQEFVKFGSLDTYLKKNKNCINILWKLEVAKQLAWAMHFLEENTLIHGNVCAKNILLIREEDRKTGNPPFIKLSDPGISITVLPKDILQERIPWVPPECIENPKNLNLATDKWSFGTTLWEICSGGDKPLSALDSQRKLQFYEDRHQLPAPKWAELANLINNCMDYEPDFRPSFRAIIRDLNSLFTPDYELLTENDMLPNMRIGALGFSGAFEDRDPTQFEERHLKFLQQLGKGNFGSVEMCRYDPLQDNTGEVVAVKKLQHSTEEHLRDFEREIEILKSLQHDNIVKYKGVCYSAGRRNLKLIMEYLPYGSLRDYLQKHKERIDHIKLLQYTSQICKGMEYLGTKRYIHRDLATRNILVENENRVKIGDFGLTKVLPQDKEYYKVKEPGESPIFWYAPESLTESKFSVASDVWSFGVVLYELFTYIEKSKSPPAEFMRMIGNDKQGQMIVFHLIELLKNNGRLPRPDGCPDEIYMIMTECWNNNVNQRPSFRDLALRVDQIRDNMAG
Outline: as §1

Structure (SMILES)	IC50 (JAK3)	IC50 (JAK2)
Fc1ccccc1Cn1ncc2cnc(Nc3cnn(CCN4CCCCC4)c3)nc21 [Example 143, 1-(2-Fluorobenzyl)-N-(1-(2-(piperidin-1-yl)ethyl)-1H-pyrazol-4-yl)-1H-pyrazolo[3,4-d]pyrimidin-6-amine]	< 0.1 µM	1 to 10 µM
Fc1ccccc1Cn1ncc2cnc(Nc3cnn(CCCN4CCCCC4)c3)nc21 [Example 144, 1-(2-Fluorobenzyl)-N-(1-(3-(piperidin-1-yl)propyl)-1H-pyrazol-4-yl)-1H-pyrazolo[3,4-d]pyrimidin-6-amine]	< 0.1 µM	0.1 to 1 µM
Fc1ccccc1Cn1ncc2cnc(Nc3cnn(CCCN4CCOCC4)c3)nc21 [Example 145, 1-(2-Fluorobenzyl)-N-(1-(3-morpholinopropyl)-1H-pyrazol-4-yl)-1H-pyrazolo[3,4-d]pyrimidin-6-amine]	< 0.1 µM	0.1 to 1 µM
Cn1cc(Nc2ncc3cnn(-c4cccc(C(=O)N5CCOCC5)c4)c3n2)cn1 [Example 146, (3-(6-((1-Methyl-1H-pyrazol-4-yl)amino)-1H-pyrazolo[3,4-d]pyrimidin-1-yl)phenyl)(morpholino)methanone]	0.1 to 1 µM	1 to 10 µM
Cn1cc(Nc2ncc3cnn(-c4cccc(C(=O)NCCO)c4)c3n2)cn1 [Example 147, N-(2-Hydroxyethyl)-3-(6-((1-methyl-1H-pyrazol-4-yl)amino)-1H-pyrazolo[3,4-d]pyrimidin-1-yl)benzamide]	0.1 to 1 µM	≥ 10 µM
Cn1cc(Nc2ncc3cnn(-c4ccc(C(=O)NCCO)cc4)c3n2)cn1 [Example 148, N-(2-Hydroxyethyl)-4-(6-((1-methyl-1H-pyrazol-4-yl)amino)-1H-pyrazolo[3,4-d]pyrimidin-1-yl)benzamide]	0.1 to 1 µM	1 to 10 µM
CN1CCN(C(=O)c2ccc(-n3ncc4cnc(Nc5cnn(C)c5)nc43)cc2)CC1 [Example 149, (4-(6-((1-Methyl-1H-pyrazol-4-yl)amino)-1H-pyrazolo[3,4-d]pyrimidin-1-yl)phenyl)(4-methylpiperazin-1-yl)methanone]	0.1 to 1 µM	1 to 10 µM
Cc1nn(CC(F)F)cc1Nc1ncc2cnn(Cc3cc(F)ccc3F)c2n1 [Example 150, 1-(2,5-Difluorobenzyl)-N-(1-(2,2-difluoroethyl)-3-methyl-1H-pyrazol-4-yl)-1H-pyrazolo[3,4-d]pyrimidin-6-amine]	< 0.1 µM	1 to 10 µM
Cc1nn(CC(F)F)cc1Nc1ncc2cnn(Cc3cc(F)ccc3C#N)c2n1 [Example 151, 2-((6-((1-(2,2-Difluoroethyl)-3-methyl-1H-pyrazol-4-yl)amino)-1H-pyrazolo[3,4-d]pyrimidin-1-yl)methyl)-4-fluorobenzonitrile]	< 0.1 µM	0.1 to 1 µM
COc1nn(CC(F)F)cc1Nc1ncc2cnn(Cc3cc(F)ccc3F)c2n1 [Example 152, 1-(2,5-Difluorobenzyl)-N-(1-(2,2-difluoroethyl)-3-methoxy-1H-pyrazol-4-yl)-1H-pyrazolo[3,4-d]pyrimidin-6-amine]	< 0.1 µM	1 to 10 µM
COc1nn(CC(F)F)cc1Nc1ncc2cnn(Cc3cc(F)ccc3C#N)c2n1 [Example 153, 2-((6-((1-(2,2-Difluoroethyl)-3-methoxy-1H-pyrazol-4-yl)amino)-1H-pyrazolo[3,4-d]pyrimidin-1-yl)methyl)-4-fluorobenzonitrile]	< 0.1 µM	0.1 to 1 µM
Cc1c(F)cccc1Cn1ncc2cnc(Nc3cnn(CC(F)F)c3)nc21 [Example 154, N-(1-(2,2-Difluoroethyl)-1H-pyrazol-4-yl)-1-(3-fluoro-2-methylbenzyl)-1H-pyrazolo[3,4-d]pyrimidin-6-amine]	0.1 to 1 µM	1 to 10 µM
Fc1cccc(Cn2ncc3cnc(Nc4cnn(CC(F)F)c4)nc32)c1F [Example 155, 1-(2,3-Difluorobenzyl)-N-(1-(2,2-difluoroethyl)-1H-pyrazol-4-yl)-1H-pyrazolo[3,4-d]pyrimidin-6-amine]	< 0.1 µM	1 to 10 µM
Fc1c(Cl)cccc1Cn1ncc2cnc(Nc3cnn(CC(F)F)c3)nc21 [Example 156, 1-(3-Chloro-2-fluorobenzyl)-N-(1-(2,2-difluoroethyl)-1H-pyrazol-4-yl)-1H-pyrazolo[3,4-d]pyrimidin-6-amine]	0.1 to 1 µM	1 to 10 µM
Fc1ccc(F)c(Cn2ncc3cnc(Nc4cnn(CC(F)F)c4)nc32)c1F [Example 157, N-(1-(2,2-Difluoroethyl)-1H-pyrazol-4-yl)-1-(2,3,6-trifluorobenzyl)-1H-pyrazolo[3,4-d]pyrimidin-6-amine]	< 0.1 µM	0.1 to 1 µM
Cn1cc(Nc2ncc3cnn(Cc4cc(F)cc(F)c4F)c3n2)cn1 [Example 158, N-(1-Methyl-1H-pyrazol-4-yl)-1-(2,3,5-trifluorobenzyl)-1H-pyrazolo[3,4-d]pyrimidin-6-amine]	< 0.1 µM	< 0.1 µM
COc1ccc(F)c(Cn2ncc3cnc(Nc4cnn(C)c4)nc32)c1F [Example 159, 1-(2,6-Difluoro-3-methoxybenzyl)-N-(1-methyl-1H-pyrazol-4-yl)-1H-pyrazolo[3,4-d]pyrimidin-6-amine]	< 0.1 µM	1 to 10 µM
Fc1cccc(F)c1Cn1ncc2cnc(Nc3cnn(CC(F)F)c3)nc21 [Example 160, 1-(2,6-Difluorobenzyl)-N-(1-(2,2-difluoroethyl)-1H-pyrazol-4-yl)-1H-pyrazolo[3,4-d]pyrimidin-6-amine]	< 0.1 µM	1 to 10 µM
FC(F)Cn1cc(Nc2ncc3cnn(Cc4ccccc4C4CC4)c3n2)cn1 [Example 161, 1-(2-Cyclopropylbenzyl)-N-(1-(2,2-difluoroethyl)-1H-pyrazol-4-yl)-1H-pyrazolo[3,4-d]pyrimidin-6-amine]	0.1 to 1 µM	1 to 10 µM
Cn1cc(Nc2ncc3cnn(Cc4c(F)c(F)cc(F)c4F)c3n2)cn1 [Example 163, N-(1-Methyl-1H-pyrazol-4-yl)-1-(2,3,5,6-tetrafluorobenzyl)-1H-pyrazolo[3,4-d]pyrimidin-6-amine]	< 0.1 µM	0.1 to 1 µM
Cn1cc(Nc2ncc3cnn(Cc4c(F)cccc4C(F)(F)F)c3n2)cn1 [Example 164, 1-(2-Fluoro-6-(trifluoromethyl)benzyl)-N-(1-methyl-1H-pyrazol-4-yl)-1H-pyrazolo[3,4-d]pyrimidin-6-amine]	< 0.1 µM	1 to 10 µM
Fc1ccccc1Cn1ncc2cnc(Nc3cnn(CCC4CCOCC4)c3)nc21 [Example 165, 1-(2-Fluorobenzyl)-N-(1-(2-(tetrahydro-2H-pyran-4-yl)ethyl)-1H-pyrazol-4-yl)-1H-pyrazolo[3,4-d]pyrimidin-6-amine]	< 0.1 µM	1 to 10 µM
Cn1cc(Nc2ncc3cnn(Cc4cccc(OCCO)c4)c3n2)cn1 [Example 166, 2-(3-((6-((1-Methyl-1H-pyrazol-4-yl)amino)-1H-pyrazolo[3,4-d]pyrimidin-1-yl)methyl)phenoxy)ethanol]	< 0.1 µM	1 to 10 µM
Cn1cc(Nc2ncc3cnn(Cc4cccc(OCCN5CCCCC5)c4)c3n2)cn1 [Example 167, N-(1-Methyl-1H-pyrazol-4-yl)-1-(3-(2-(piperidin-1-yl)ethoxy)benzyl)-1H-pyrazolo[3,4-d]pyrimidin-6-amine]	< 0.1 µM	≥ 10 µM
Cn1cc(Nc2ncc3cnn(Cc4ccccc4OCCO)c3n2)cn1 [Example 168, 2-(2-((6-((1-Methyl-1H-pyrazol-4-yl)amino)-1H-pyrazolo[3,4-d]pyrimidin-1-yl)methyl)phenoxy)ethanol]	< 0.1 µM	1 to 10 µM
COCCCOc1cccc(Cn2ncc3cnc(Nc4cnn(C)c4)nc32)c1 [Example 169, 1-(3-(3-Methoxypropoxy)benzyl)-N-(1-methyl-1H-pyrazol-4-yl)-1H-pyrazolo[3,4-d]pyrimidin-6-amine]	0.1 to 1 µM	≥ 10 µM
Cn1cc(Nc2ncc3cnn(Cc4cccc(F)n4)c3n2)cn1 [Example 170, 1-((6-Fluoropyridin-2-yl)methyl)-N-(1-methyl-1H-pyrazol-4-yl)-1H-pyrazolo[3,4-d]pyrimidin-6-amine]	< 0.1 µM	1 to 10 µM
